The values that follow are results of earlier work, collected in patent publication US5348946A, “Heteroanthracycline antitumor analogs” (Biochem Immunosystems, Inc., priority 1991, dated 1994).

The conditions of the series: compared with daunorubicin and doxorubicin; cited from earlier work.

Consider `CC(=O)[C@@H]1Cc2c(c(O)c3oc4ccccc4c(=O)c3c2O)[C@@H](O[C@H]2C[C@H](N)[C@H](O)[C@H](C)O2)C1` [Compound 3], for which the antileukemic activity entry is “antileukemic activity, but lower than that of the parent antibiotics daunorubicin and doxorubicin”.

In the case of `CC(=O)[C@]1(O)Cc2c(c(O)c3oc4ccccc4c(=O)c3c2O)[C@@H](O[C@H]2C[C@H](N)[C@H](O)[C@H](C)O2)C1` [Compound 4], the antileukemic activity result is “antileukemic activity, but lower than that of the parent antibiotics daunorubicin and doxorubicin”.

For `CC(=O)[C@]1(O)Cc2c(c(O)c3oc4ccccc4c(=O)c3c2O)[C@@H](O[C@H]2C[C@H](NC(=O)C(F)(F)F)[C@H](O)[C@H](C)O2)C1` [Compound 5], the antileukemic activity result is “antileukemic activity, but lower than that of the parent antibiotics daunorubicin and doxorubicin”.
